Data: the OPERA property sets (Mansouri et al. 2018)

Details: not given

| SMILES | melting point [°C] | ready biodegradability | boiling point [°C] | log10 Henry constant (atm·m³/mol) | log10 vapour pressure (mmHg) | log10 Koc (L/kg) | log10 Koa | log10 biodegradation half-life (days) |
| --- | --- | --- | --- | --- | --- | --- | --- | --- |
| O=C1NN(c2ccccc2)C(=O)C1c1ccccc1 (configuration not stated) | 234 | – | – | – | – | – | – | – |
| CC(C)(C)c1ccc(OC(=O)c2ccccc2O)cc1 | 62 | – | – | – | – | – | – | – |
| ClC=CCCl | – | not readily biodegradable | – | – | – | – | – | – |
| CCc1ccncc1 | -90.5 | – | 168 | -5.07 | 0.355 | – | – | – |
| Nc1cc(Cl)c(Cl)cc1Cl | 96.5 | – | 270 | – | – | – | – | – |
| Nc1cc(N2CCCCC2)nc(N)[n+]1[O-] | 248 | – | – | – | – | – | – | – |
| CCCC1COC(Cn2cncn2)(c2ccc(Cl)cc2Cl)O1 (configuration not stated) | – | – | – | – | -6.38 | 3.39 | – | – |
| CCCCCCCCCCCCCCCCCCCl | 28.6 | – | 348 | – | -4.77 | – | – | – |
| C=C1C[C@@H]1C[C@H](N)C(=O)O | 282 | – | – | – | – | – | – | – |
| Cc1cc(C)c(N)c(Cl)c1 | – | not readily biodegradable | – | – | – | – | – | – |
| CCCCCCC/C=C\C(=O)O | 12 | – | – | – | – | – | – | – |
| COC(=O)CC(=O)OC | -61.9 | – | 181 | – | -0.0458 | – | – | – |
| CC(Br)C(=O)c1ccccc1 (configuration not stated) | – | – | 248 | – | – | – | – | – |
| CC(=O)CCC=C(C)C | -67.1 | readily biodegradable | 174 | – | – | – | – | – |
| CC(=O)Nc1nc(=O)c2ncn(COCCOC(C)=O)c2[nH]1 | 204 | – | – | – | – | – | – | – |
| O=C(Cl)c1ccccc1 | -1 | – | 197 | – | -0.155 | – | – | – |
| CCN(CC)C1CCCCC1 | – | – | 193 | – | – | – | – | – |
| CCC(C)(C)CC(C)C | -113 | – | 131 | – | 1.13 | – | – | – |
| CCCCNc1ccccc1 | -14.4 | – | 244 | – | – | – | – | – |

| SMILES | melting point [°C] | ready biodegradability | boiling point [°C] | log10 Henry constant (atm·m³/mol) | log10 vapour pressure (mmHg) | log10 Koc (L/kg) | log10 Koa | log10 biodegradation half-life (days) |
| --- | --- | --- | --- | --- | --- | --- | --- | --- |
| CC(C)=CCC1=C(O)C(=O)c2ccccc2C1=O | 140 | – | – | – | – | – | – | – |
| COc1ccc(C[C@H]2c3cc(OC)c(OC)cc3CCN2C)cc1O | 176 | – | – | – | – | – | – | – |
| CC(=O)CC(c1ccc([N+](=O)[O-])cc1)c1c(O)c2ccccc2oc1=O (configuration not stated) | 197 | – | – | – | – | – | – | – |
| CCOc1ccc(NC(=O)OC(C)C)cc1OCC | 100 | – | – | – | -4.2 | – | – | – |
| CC[C@]1(O)CC[C@H]2[C@@H]3CCC4=CCCC[C@@H]4[C@H]3CC[C@@]21C | 77 | – | – | – | – | – | – | – |
| O=C(Nc1ccccc1)Nc1ccnc(Cl)c1 | 167 | – | – | – | -9.46 | – | – | – |
| O=C(c1ccccc1)c1cccs1 | 56.5 | – | 300 | – | – | – | – | – |
| CCCCN(CCO)CCO | – | – | 275 | – | – | – | – | – |
| CCCCC(O)C(=O)O (configuration not stated) | 61 | – | 305 | – | -5.5 | – | – | – |
| CCCC[Si](Cl)(Cl)Cl | – | – | 148 | – | – | – | – | – |
| CCCCCCCCC(=O)CC | 12 | – | 227 | – | – | – | – | – |
| ClCC(Br)CBr (configuration not stated) | 6 | not readily biodegradable | 196 | – | -0.237 | 1.85 | – | – |
| NC(=O)NCc1ccccc1 | 148 | – | – | – | – | – | – | – |
| CCOCC(C)C | – | – | 81 | – | – | – | – | – |
| CCCCCCCNCCCCCCC | 31.5 | – | 271 | – | – | – | – | – |
| CC1CCC(O)CC1 (configuration not stated) | – | – | 172 | – | – | – | – | – |
| CC(=O)Oc1ccc(OC(C)=O)c(OC(C)=O)c1 | – | – | 300 | – | – | – | – | – |
| CNC(=O)O/N=C/C(C)(C)S(C)(=O)=O | 141 | – | – | – | -4.05 | 0.42 | – | – |
| c1ccc(-c2ccccc2)cc1 | – | readily biodegradable | 256 | -3.51 | -2.05 | 3.27 | 6.15 | 1.49 |

| SMILES | melting point [°C] | ready biodegradability | boiling point [°C] | log10 Henry constant (atm·m³/mol) | log10 vapour pressure (mmHg) | log10 Koc (L/kg) | log10 Koa | log10 biodegradation half-life (days) |
| --- | --- | --- | --- | --- | --- | --- | --- | --- |
| O=C(Br)c1ccccc1 | -24 | – | 218 | – | -0.654 | – | – | – |
| CC(CCl)CCCl (configuration not stated) | – | – | 168 | – | – | – | – | – |
| CCCCCCCCCCCCCCCCCCCCCCCCCCCCCCCCCCCC | 76.5 | readily biodegradable | – | – | – | – | – | – |
| C#CCCCCCCC(=O)O | 19 | – | – | – | – | – | – | – |
| C=C(C)c1cccc(C(=C)C)c1 | – | – | 231 | – | – | – | – | – |
| CC(C)C=O | -65.9 | readily biodegradable | 64.5 | – | 2.24 | – | – | – |
| NC1CC1 | -35.4 | – | 50.5 | – | – | – | – | – |
| Cl.N=C(N)SCc1ccc(Cl)cc1 | 197 | – | – | – | – | – | – | – |
| C=CC[Si](C)(C)C | – | – | 86 | – | – | – | – | – |
| NNCCO | -70 | – | 219 | – | – | – | – | – |
| COc1ccc([C@@H]2CC(=O)c3c(O)cc(O)cc3O2)cc1O | 228 | – | – | – | – | – | – | – |
| CN1C(C)(C)CCCC1(C)C | – | – | 147 | – | – | – | – | – |
| CC(C)(C)C(=O)OC(=O)C(C)(C)C | – | – | 193 | – | -0.356 | – | – | – |
| FC(F)(Cl)Br | -160 | – | -3.7 | – | 3.31 | – | – | – |
| CCCCNCC(O)c1ccc(O)cc1 (configuration not stated) | 124 | – | – | – | – | – | – | – |
| COc1ccc(CC(C)(C)C)cc1 | – | – | 238 | – | – | – | – | – |
| c1ccc(Cc2c3ccccc3c(Cc3ccccc3)c3ccccc23)cc1 | 246 | – | – | – | – | – | – | – |
| Cc1ccc(C(F)(F)F)cc1 | – | – | 129 | – | – | – | – | – |

Same assay, conditions: fish

| SMILES | log10 biotransformation half-life (days) | log10 BCF |
| --- | --- | --- |
| Clc1ccc(Oc2c(Cl)cc(Cl)c(Cl)c2Cl)c(Cl)c1 | 2.76 | – |
| COc1ccc(C(=O)c2ccccc2)c(O)c1 | – | 1.97 |
| C=CCCCCCCCC | 0.65 | – |
| Nc1cc(Cl)c(Cl)cc1Cl | -0.01 | 2.33 |
| CCCC1COC(Cn2cncn2)(c2ccc(Cl)cc2Cl)O1 (configuration not stated) | 0.7 | – |
| O=[N+]([O-])c1cccc(S(=O)(=O)[O][Na])c1 | – | 0.7 |
| ClCC(Br)CBr (configuration not stated) | -1.14 | 1.06 |
| c1ccc(-c2ccccc2)cc1 | – | 2.64 |
